We go through two compounds from BindingDB's records for doi:10.1021/jm8001026 (University of Texas At Dallas, 2008).

SMILES strings stand for the structures.

This experiment deals with T1, Dihydroorotate dehydrogenase (quinone), mitochondrial (Plasmodium falciparum (isolate 3D7), UniProt Q08210).
T1 sequence (Q08210 whole entry): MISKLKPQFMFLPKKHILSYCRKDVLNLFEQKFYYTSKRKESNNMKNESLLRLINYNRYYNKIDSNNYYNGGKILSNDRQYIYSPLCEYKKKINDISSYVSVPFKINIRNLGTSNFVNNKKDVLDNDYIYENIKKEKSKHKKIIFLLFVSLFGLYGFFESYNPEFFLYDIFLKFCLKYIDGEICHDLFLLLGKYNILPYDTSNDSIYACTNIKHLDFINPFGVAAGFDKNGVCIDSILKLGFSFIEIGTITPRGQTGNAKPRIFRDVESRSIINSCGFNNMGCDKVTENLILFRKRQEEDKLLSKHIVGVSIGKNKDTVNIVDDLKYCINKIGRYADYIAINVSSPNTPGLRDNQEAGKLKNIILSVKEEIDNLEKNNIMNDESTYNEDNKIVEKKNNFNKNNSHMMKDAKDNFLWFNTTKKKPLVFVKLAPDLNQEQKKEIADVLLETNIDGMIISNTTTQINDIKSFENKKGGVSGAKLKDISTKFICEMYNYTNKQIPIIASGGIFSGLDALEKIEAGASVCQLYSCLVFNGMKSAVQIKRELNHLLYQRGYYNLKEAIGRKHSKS
Description: DHODH Inhibition Assay. To be noted: pH 8; 20 °C. The procedure:
The assays were carried out by using a colorimetric DCIP method, which uses the colorimetric reagent 2, 6-dichlorophenolindophenol as the final electron acceptor. DCIP reduction is stoichiometrically equivalent to oxidation of dihydroorotate. Changes in absorbance were quantified on a plate reader and data were analyzed to measure the reduction of DCIP as a decrease in absorbance at 600 nm.

`Cc1cc(Nc2ccccc2)n2ncnc2n1` [JMC521864 Compund DSM12] registered an IC50 of more than 100 µM. For `Cc1cc(Nc2ccc(C(N)=O)cc2)n2ncnc2n1` [4-({5-methyl-[1,2,4]triazolo[1,5-a]pyrimidin-7-yl}amino)benzamide] the value was more than 200 µM.
